Consider 5 compounds from US7045617B2, “Bisbubstrate inhibitors of kinases” (priority 2000, dated 2006).

The target of series [1] is activated recombinant IRK (insulin receptor kinase) (Homo sapiens, UniProt P06213). The series is described as follows: Steady-state kinetic analysis of IRK inhibition (kinase assay). Type of series: biochemical. To be noted: for binding energy: binding to IRK. Here is the method:
FIG. 2. […] Assays were carried out using activated recombinant IRK as described previously. 6 a, E/V vs. 1/ATP in the presence of varying. Conditions: fixed IRS727 concentration ([…]), 20 mM MgCl2, 0.5 mM DTT, 6 nM IRK, 0.05% bovine serum albumin, Tris-Acetate pH 7, 10 min reaction time. b, E/V vs. 1/IRS727 in the presence of varying. Conditions same as for a except fixed ATP ([…]), 8 nM IRK and 5 min reaction time.
v=Vm(S)/[Km(1+I/Ki)+S]; v=initial velocity, Vm=maximal velocity, S=substrate concentration, Km=Michaelis constant. […] Conditions: Incubation of […] +/−5 mM 2 for 10 min in reaction buffer (20 mM MgCl2, 0.5 mM DTT, 0.05% BSA, 50 mM Tris-Acetate, pH 7) then dilute 1:50 into reaction buffer containing 1 mM ATP and […] peptide6 IRS939 and measure conversion by HPLC at times shown. To determine koff, data were fit to the equation^17: […]
Assays were carried out using activated recombinant IRK as described previously^6. For E/V vs. 1/ATP plot the conditions were: […] IRS727 concentration, 20 mM MgCl2, 0.5 mM DTT, 6 nM IRK, 0.05% bovine serum albumin, 50 mM Tris-Acetate pH 7, 10 min reaction time. For E/V vs. 1/IRS727 in the conditions were the same except fixed ATP ([…]) was employed, 8 nM IRK and 5 min reaction time.
v=Vm(S)/[Km(1+I/Ki)+S]; v=initial velocity, Vm=maximal velocity, S=substrate concentration, Km=Michaelis constant.

In series [2] the target is Csk (Homo sapiens, UniProt P41240). In words: Inhibition of protein tyrosine kinase Csk. Type of series: biochemical. To be noted: read-out: Km (ATP). The protocol:
The specificity of inhibition was also tested by assaying 2 as an inhibitor of the protein tyrosine kinase Csk18. The peptide binding selectivity for Csk is quite different from IRK, and the IRS727 peptide moiety would be predicted to bind poorly to this enzyme^19. […] Thus the bisubstrate analog approach should allow for kinase selectivity based in part on peptide sequence.

Series [3] is described as follows: Stability of compound in aqueous solution. Type of series: physicochemical. The source says:
The protected peptide was assembled using solid-phase peptide synthesis using Fmoc chemistry, in which the single tyrosine of IRS727 was replaced with commercially available nitrophenylalanine. The nitro group was reduced with SnCl2 and the aniline function was bromoacetylated via standard coupling conditions. The peptide was cleaved from the resin and deblocked with trifluoroacetic acid, water, and thioanisole and purified by reversed phase HPLC. […] The peptide-ATP conjugate 2 was purified by reversed phase HPLC and characterized by electrospray mass spectrometry and 1H NMR.

For series [4], the target named is T1, recombinant mouse PKA (catalytic subunit) (Mus musculus, UniProt P05132).
T1 construct: purchased Calbiochem
In words: PKA inhibition assay (Calbiochem kit, Dixon plot). Type of series: biochemical. To be noted: preliminary assays. Here is the method:
Reagents from Calbiochem's Protein Kinase A kit were used to perform the inhibition assays and recombinant mouse PKA (catalytic subunit) was also purchased from Calbiochem (enzyme concentration was established by Bradford analysis). A 0.76 mM stock solution of kemptide-ATPγS conjugate was prepared and used to make serial dilutions into an aqueous MgCl2 solution (53 mM), producing a range of inhibitor concentrations from 144 uM to 1.4 μM with Mg2+ concentration of 47.7 mM. These were further diluted into water to produce a range of inhibitor solutions between 51 μM and 507 nM. An 11.25 μL aliquot from each of these solutions was pre-incubated with 7.5 μL of a 1.75 nM PKA enzyme solution (750 ug/uL bovine serum albumin) for 10 minutes at 30° C. after which 12.5 μL of pre-incubation mix was added to 12.5 μL of reaction mix (30 μM cold ATP, 50 μM biotinylated kemptide substrate, 0.04 uCi/μL γP-32 ATP, 80 mM Tris-HCl, 10 mM MgCl2, pH 7.5) to initiate the enzymatic reaction. […] The columns were placed in scintillation vials and radioactivity was measured using a scintillation counter.

A word on the Km: it is the concentration of substrate that gives half-maximal velocity. For orientation: half-life means the time needed for the level to fall by half in the phase considered. As a reminder, the Ki is a dissociation constant, usually derived from enzyme kinetics or from competition with a known ligand.

Where two headings read alike, the source gives them in different places. Where a SMILES comes first, the peptide text is derived from it. [ ]: non-standard residue; d: D form. The star is where a group is joined. X1 = Nc1ncnc2c1ncn2[C@@H]1O[C@H](COP(=O)(O)OP(=O)(O)OP(=O)(O)SCC(=O)*)[C@@H](O)[C@H]1O; Phe(4-NH2) = Nc1ccc(C[C@H](N)C(=O)O)cc1; Dap = NC[C@H](N)C(=O)O

Chain of activated recombinant IRK (insulin receptor kinase) (P06213 1005-1310 limits assumed): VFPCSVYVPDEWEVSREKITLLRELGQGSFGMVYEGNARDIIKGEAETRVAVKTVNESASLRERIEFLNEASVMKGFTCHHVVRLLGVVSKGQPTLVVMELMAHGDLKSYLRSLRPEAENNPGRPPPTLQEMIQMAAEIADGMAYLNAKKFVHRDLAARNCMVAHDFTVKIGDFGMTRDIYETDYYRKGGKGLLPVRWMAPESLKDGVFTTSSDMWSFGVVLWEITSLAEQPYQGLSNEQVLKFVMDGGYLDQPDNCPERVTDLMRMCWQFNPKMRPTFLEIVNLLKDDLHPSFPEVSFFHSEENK
Chain of Csk (P41240 whole entry, species assumed): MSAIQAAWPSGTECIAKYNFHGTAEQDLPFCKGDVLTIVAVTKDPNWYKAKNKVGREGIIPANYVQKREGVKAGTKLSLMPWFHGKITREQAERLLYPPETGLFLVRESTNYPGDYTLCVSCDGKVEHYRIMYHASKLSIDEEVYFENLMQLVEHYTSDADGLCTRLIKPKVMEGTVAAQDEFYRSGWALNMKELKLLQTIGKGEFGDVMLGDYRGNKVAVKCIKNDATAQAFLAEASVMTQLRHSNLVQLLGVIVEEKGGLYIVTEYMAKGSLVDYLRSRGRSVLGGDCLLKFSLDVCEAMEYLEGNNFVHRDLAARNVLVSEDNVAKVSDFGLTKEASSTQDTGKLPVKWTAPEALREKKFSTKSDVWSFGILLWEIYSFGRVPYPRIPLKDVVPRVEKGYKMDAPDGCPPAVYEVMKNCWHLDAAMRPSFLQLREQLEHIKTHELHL

In the case of `Nc1ncnc2c1ncn2[C@@H]1O[C@H](COP(=O)(O)OP(=O)(O)OP(=O)(O)O)[C@@H](O)[C@H]1O` [ATP, reference compound], the Km in series [1] (substrates of IRK, read-out: Km app) amounted to 71 µM; in series [2], 195 µM.
For `CSCC[C@H](NC(=O)[C@H](Cc1ccc(NC(=O)CSP(=O)(O)OP(=O)(O)OP(=O)(O)OC[C@H]2O[C@@H](n3cnc4c(N)ncnc43)[C@H](O)[C@@H]2O)cc1)NC(=O)[C@H](CC(=O)O)NC(=O)CNC(=O)[C@@H](NC(=O)[C@H](C)NC(=O)[C@@H]1CCCN1C(=O)[C@H](CC(C)C)NC(=O)[C@H](CCCCN)NC(=O)[C@H](CCCCN)NC(=O)[C@H](CCCCN)NC(C)=O)[C@@H](C)O)C(=O)N[C@@H](CC(N)=O)C(=O)N[C@@H](CCSC)C(=O)N[C@@H](CO)C(=O)N1CCC[C@H]1C(=O)N[C@H](C(=O)NCC(=O)N[C@@H](CC(=O)O)C(=O)O)C(C)C` [Compound 2] (Ac-KKKLPATGD[Phe(4-NH2)](X1)MNMSPVGD-OH), in series [1], the “mode of inhibition of IRK” value was “linear competitive inhibitor versus both nucleotide (FIG. 2a) and peptide (FIG. 2b) substrates”; the binding energy amounted to 37.2 kJ/mol. In addition, the half-life in series [3] (acidic solution (pH 2), read-out: half life of decomposition (converted)) was about 2 h. In series [3] (frozen solution at −80° C. for several weeks), the storage stability result was “without detectable decomposition”. The “time stable in aqueous solution” value in series [3] (neutral pH, room temperature) is over 12 h.
As to `Nc1ncnc2c1ncn2[C@@H]1O[C@H](COP(=O)(O)OP(=O)(O)OP(=O)(O)SCC(=O)Nc2ccccc2)[C@@H](O)[C@H]1O` [Compound 3], in series [1], the Ki worked out at 114 µM, the “fold tighter binding than ATP-γS alone” value was 2 fold, the “fold weaker as an inhibitor than 2” value is “approximately 300 fold” and the “mode of inhibition of IRK” value is recorded as “linear competitive inhibitor of IRK versus ATP”.
With `CC(=O)N[C@@H](CC(C)C)C(=O)N[C@@H](CCCNC(=N)N)C(=O)N[C@@H](CCCNC(=N)N)C(=O)N[C@@H](C)C(=O)N[C@@H](CNC(=O)CSP(=O)(O)OP(=O)(O)OP(=O)(O)OC[C@H]1O[C@@H](n2cnc3c(N)ncnc32)[C@H](O)[C@@H]1O)C(=O)N[C@@H](CC(C)C)C(=O)NCC(=O)O` [kemptide-ATPγS conjugate] (Ac-LRRA[Dap](X1)LG-OH), the “inhibition of PKA (in words)” value in series [4] is given as “inhibitory to PKA”. Also, the Ki in series [4] (reversible competitive inhibition model, read-out: calculated Ki versus ATP) is 9.6 µM.
Consider “adenosine 5′-O-3-thiotriphosphate [ATPγS, reference compound]”, for which the binding energy in series [1] amounted to 21.3 kJ/mol. The Ki in series [1] (linear competitive versus ATP, read-out: Ki versus ATP) amounted to 210 µM.
